Assays:
[1] = biological target: T1, PTPN2 enzyme (Homo sapiens, UniProt P17706); experiment: PhosphoSens PTPN2 biochemical assay; settings: substrate AQT0264 20 μM, room temperature; read-out: PTPN2 BCHEM IC50
T1 sequence (P17706 1-415): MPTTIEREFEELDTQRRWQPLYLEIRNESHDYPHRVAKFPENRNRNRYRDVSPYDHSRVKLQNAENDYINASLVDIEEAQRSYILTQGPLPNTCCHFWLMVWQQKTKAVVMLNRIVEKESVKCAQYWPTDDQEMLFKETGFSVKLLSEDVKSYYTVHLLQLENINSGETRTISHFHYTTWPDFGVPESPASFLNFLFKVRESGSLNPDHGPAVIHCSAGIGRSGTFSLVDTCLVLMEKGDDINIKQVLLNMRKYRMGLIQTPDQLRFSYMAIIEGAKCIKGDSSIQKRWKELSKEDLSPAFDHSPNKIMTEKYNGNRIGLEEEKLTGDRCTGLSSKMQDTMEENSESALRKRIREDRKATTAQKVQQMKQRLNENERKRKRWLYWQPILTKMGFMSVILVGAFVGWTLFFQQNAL
Experimental: A PhosphoSens® kinase assay was performed as described by the vendor (AssayQuant Technologies, Marlborough, MA). Briefly, 1000×solutions of compounds were prepared in DMSO via serial dilution of the 10 mM DMSO stocks using 3-fold intervals in a 384-well reagent plate. 50 nL of the compound dilution series was then added to the corresponding wells of a 384-well assay plate. […] of 1.25×substrate (AQT0264) in 1× assay buffer (50 mM HEPES pH 7.5, 500 μM EGTA, […] MgCl2, 0.01% Brij-35, 1% Glycerol, 1 mM DTT, and 0.2 mg/mL BSA) was transferred to each well of the assay plate to achieve a final substrate concentration of 20 μM. Finally, […] of 5×PTPN2 enzyme stock was added to each well of the assay plate for a final enzyme concentration of […]. Reaction progress curves were collected by sampling fluorescence intensity at the excitation wavelength 360 nm (λex360) and emission wavelength 480 nm (λem480) every 71 seconds for one hour using a Synergy H4 plate reader (BioTek Instruments/Agilent Technologies, Winooski, VT) at room temperature.

[2] = tested on: B16-F10 cells; experiment: Cell proliferation assay (CellTiter-Glo) in IFN-gamma treated B16-F10 cells; format: cell-based; settings: 120 h, mouse IFN-gamma 10 ng/mL, read-out: PTPN2 Prolif 5d B16F10 EC50
Experimental: B16-F10 cells (ATCC, Manassas, VA, #CRL-6475) were cultured in DMEM growth medium (ThermoFisher Scientific, Waltham, MA, #11995-040) supplemented with 10% heat inactivated FBS (ThermoFisher Scientific, #16140-071) and 1% pen/strep (ThermoFisher Scientific, #15140-122). The cells were seeded into two white opaque 384-well tissue culture treated microplates (PerkinElmer, Waltham, MA, #6007688) at a density of 100 cells/well in 20 uL total volume and incubated overnight at 37 C and 5% CO2. 30 nL of compounds dissolved in DMSO were then transferred from a source plate into target wells with the Echo650 acoustic liquid handler (Beckman Coulter, Indianapolis, IN). Negative control wells received 30 nL of DMSO only (0.15% final concentration). Plates were returned to the incubator for 1 hour and then cells treated with either 5 uL of growth medium or 5 uL of growth medium containing 50 ng/mL of recombinant mouse IFN-gamma protein (R&D Systems, Minneapolis, MN, #485-MI/CF, 10 ng/mL final concentration) using the Assist automated pipetting platform (INTEGRA Biosciences, Hudson, NH). Plates were incubated at 37 C for 4 days and cell proliferation assayed with the CellTiter-Glo reagent (Promega, Madison, WI, #G7573, 25 uL per well). […] Off-target compound mediated cytotoxicity was identified by checking for growth inhibition in the absence of IFNg.

[3] = tested on: phosphorylated STAT1 protein levels in B16-F10 cells; experiment: Phospho-STAT1 (Tyr701) HTRF assay in IFN-gamma treated B16-F10 cells; format: cell-based; settings: mouse IFN-gamma 100 ng/mL, 1 hour, read-out: pSTAT1 HTRF B16 EC50
Experimental: B16-F10 cells (ATCC, Manassas, VA, #CRL-6475) were cultured in DMEM growth medium (ThermoFisher Scientific, Waltham, MA, #11995-040) supplemented with 10% heat inactivated FBS (ThermoFisher Scientific, #16140-071) and 1% pen/strep (ThermoFisher Scientific, #15140-122). The cells were seeded into a white opaque 384-well tissue culture treated microplate (PerkinElmer, Waltham, MA, #6007688) at a density of 10,000 cells/well in 20 uL total volume and incubated overnight at 37 C and 5% CO2. 30 nL of compounds dissolved in DMSO were then transferred from a source plate into target wells with the Echo650 acoustic liquid handler (Beckman Coulter, Indianapolis, IN). Negative control wells received 30 nL of DMSO only (0.15% final concentration). Plates were returned to the incubator for 1 hour and then cells treated with either 5 uL of growth medium or 5 uL of growth medium containing 500 ng/mL of recombinant mouse IFN-gamma protein (R&D Systems, Minneapolis, MN, #485-MI/CF, 100 ng/mL final concentration) using the Assist automated pipetting platform (INTEGRA Biosciences, Hudson, NH). Plates were incubated at 37 C for 1 hour and assayed for phosphorylated STAT1 protein levels with the phospho-STAT1 (Tyr701) HTRF kit (Cisbio, Bedford, MA, #63ADK026PEH) according to manufacturer's instructions.

| SMILES | IC50 [1] | EC50 [2] | EC50 [3] |
| --- | --- | --- | --- |
| O=C1CN(c2c(O)cc(-c3cccc(Oc4ccccc4)c3)cc2F)S(=O)(=O)N1 [EXAMPLE 14, 5-[2-fluoro-6-hydroxy-4-(3-phenoxyphenyl)phenyl]-1,1-dioxo-1,2,5-thiadiazolidin-3-one] | 2210 nM | ≥ 15000 nM | ≥ 15000 nM |
| O=C1CN(c2c(O)cc(-c3ccc(N4CCOCC4)cc3)cc2F)S(=O)(=O)N1 [EXAMPLE 13, 5-[2-fluoro-6-hydroxy-4-(4-morpholinophenyl)phenyl]-1,1-dioxo-1,2,5-thiadiazolidin-3-one] | 466 nM | ≥ 15000 nM | ≥ 15000 nM |
| O=C1CN(c2c(O)cc(-c3ccccn3)cc2F)S(=O)(=O)N1 [EXAMPLE 7, 5-(2-fluoro-6-hydroxy-4-(pyridin-2-yl)phenyl)-1,2,5-thiadiazolidin-3-one 1,1-dioxide] | 568 nM | ≥ 15000 nM | ≥ 15000 nM |
| O=C1CN(c2c(O)cc(C3CCCNC3)cc2F)S(=O)(=O)N1 (stereo not drawn) [EXAMPLE 1, 5-(2-fluoro-6-hydroxy-4-(piperidin-3-yl)phenyl)-1,2,5-thiadiazolidin-3-one 1,1-dioxide] | 119 nM | 882 nM | 1280 nM |
| O=C1CN(c2c(O)cc(-c3ccc(Cc4ccccc4)cc3)cc2F)S(=O)(=O)N1 [EXAMPLE 10, 5-[4-(4-benzylphenyl)-2-fluoro-6-hydroxy-phenyl]-1,1-dioxo-1,2,5-thiadiazolidin-3-one] | 6140 nM | ≥ 15000 nM | ≥ 15000 nM |
| O=C1CN(c2c(O)cc(-c3ccc(O)nc3)cc2F)S(=O)(=O)N1 [EXAMPLE 26, 5-[2-fluoro-6-hydroxy-4-(6-hydroxy-3-pyridyl)phenyl]-1,1-dioxo-1,2,5-thiadiazolidin-3-one] | 10 nM | 3110 nM | 2180 nM |
| O=C1CN(c2c(O)cc(-c3ccc(-c4ccc(F)cc4)cc3)cc2F)S(=O)(=O)N1 [EXAMPLE 12, 5-[2-fluoro-4-[4-(4-fluorophenyl)phenyl]-6-hydroxy-phenyl]-1,1-dioxo-1,2,5-thiadiazolidin-3-one] | 1990 nM | ≥ 15000 nM | ≥ 15000 nM |
| CN1CCN(Cc2cc(O)c(N3CC(=O)NS3(=O)=O)c(F)c2)CC1 [EXAMPLE 31, 5-(2-fluoro-6-hydroxy-4-((4-methylpiperazin-1-yl)methyl)phenyl)-1,2,5-thiadiazolidin-3-one 1,1-dioxide] | 104 nM | 1310 nM | 2410 nM |
| O=C1CN(c2c(O)cc(-c3ccc(-c4ccccc4)nc3)cc2F)S(=O)(=O)N1 [EXAMPLE 30, 5-[2-fluoro-6-hydroxy-4-(6-phenyl-3-pyridyl)phenyl]-1,1-dioxo-1,2,5-thiadiazolidin-3-one] | 148 nM | ≥ 15000 nM | ≥ 15000 nM |
| O=C1CN(c2c(O)cc(-c3cccnc3)cc2F)S(=O)(=O)N1 [EXAMPLE 8, 5-(2-fluoro-6-hydroxy-4-(pyridin-3-yl)phenyl)-1,2,5-thiadiazolidin-3-one 1,1-dioxide] | 199 nM | ≥ 15000 nM | 2430 nM |

Results, then the molecule that gave them:

| IC50 [1] | EC50 [2] | EC50 [3] | SMILES |
| --- | --- | --- | --- |
| 70 nM | 3560 nM | 3380 nM | O=C1CN(c2c(O)cc(CN3CCOCC3)cc2F)S(=O)(=O)N1 [EXAMPLE 41, 5-(2-fluoro-6-hydroxy-4-(morpholinomethyl)phenyl)-1,2,5-thiadiazolidin-3-one 1,1-dioxide] |
| 682 nM | ≥ 15000 nM | 5480 nM | O=C1CN(c2c(O)cc(N3CCNCC3)cc2F)S(=O)(=O)N1 [EXAMPLE 85, 5-(2-fluoro-6-hydroxy-4-(piperazin-1-yl)phenyl)-1,2,5-thiadiazolidin-3-one 1,1-dioxide] |
| 86 nM | ≥ 15000 nM | ≥ 15000 nM | O=C1CN(c2c(O)cc(CNC3CCNCC3)cc2F)S(=O)(=O)N1 [EXAMPLE 39, 5-(2-fluoro-6-hydroxy-4-((piperidin-4-ylamino)methyl)phenyl)-1,2,5-thiadiazolidin-3-one 1,1-dioxide] |
| 2130 nM | ≥ 15000 nM | ≥ 15000 nM | COCCN1CCC(Nc2cc(O)c(N3CC(=O)NS3(=O)=O)c(F)c2)CC1 [EXAMPLE 90, 5-(2-fluoro-6-hydroxy-4-((1-(2-methoxyethyl)piperidin-4-yl)amino)phenyl)-1,2,5-thiadiazolidin-3-one 1,1-dioxide] |
| 54 nM | 4690 nM | 3560 nM | CS(=O)(=O)N1CCC[C@@H](NCc2cc(O)c(N3CC(=O)NS3(=O)=O)c(F)c2)C1 [EXAMPLE 72, 5-[2-fluoro-6-hydroxy-4-[[[(3R)-1-methylsulfonyl-3-piperidyl]amino]methyl]phenyl]-1,1-dioxo-1,2,5-thiadiazolidin-3-one] |
| 896 nM | ≥ 15000 nM | ≥ 15000 nM | CC(C)CCN1CCN(c2cc(O)c(N3CC(=O)NS3(=O)=O)c(F)c2)CC1 [EXAMPLE 83, 5-(2-fluoro-6-hydroxy-4-(4-isopentylpiperazin-1-yl)phenyl)-1,2,5-thiadiazolidin-3-one 1,1-dioxide] |
| 121 nM | 2560 nM | 4980 nM | O=C1CN(c2c(O)cc(CN[C@@H]3CCCNC3)cc2F)S(=O)(=O)N1 [EXAMPLE 61, (R)-5-(2-fluoro-6-hydroxy-4-((piperidin-3-ylamino)methyl)phenyl)-1,2,5-thiadiazolidin-3-one 1,1-dioxide] |
| 79 nM | ≥ 15000 nM | ≥ 15000 nM | CC(C)CC(=O)N1CCN(Cc2cc(O)c(N3CC(=O)NS3(=O)=O)c(F)c2)CC1 [EXAMPLE 36, 5-(2-fluoro-6-hydroxy-4-((4-(3-methylbutanoyl)piperazin-1-yl)methyl)phenyl)-1,2,5-thiadiazolidin-3-one 1,1-dioxide] |
| 35 nM | 812 nM | 1340 nM | CC1(C)CCC(NCc2cc(O)c(N3CC(=O)NS3(=O)=O)c(F)c2)CC1 [EXAMPLE 37, 5-(4-(((4,4-dimethylcyclohexyl)amino)methyl)-2-fluoro-6-hydroxyphenyl)-1,2,5-thiadiazolidin-3-one 1,1-dioxide] |
| 126 nM | 1670 nM | 2700 nM | O=C1CN(c2c(O)cc(CN[C@H]3CCCOC3)cc2F)S(=O)(=O)N1 [EXAMPLE 67, (S)-5-(2-fluoro-6-hydroxy-4-(((tetrahydro-2H-pyran-3-yl)amino)methyl)phenyl)-1,2,5-thiadiazolidin-3-one 1,1-dioxide] |
| 131 nM | ≥ 15000 nM | ≥ 15000 nM | COCCN1CCN(Cc2cc(O)c(N3CC(=O)NS3(=O)=O)c(F)c2)CC1 [EXAMPLE 44, 5-(2-fluoro-6-hydroxy-4-((4-(2-methoxyethyl)piperazin-1-yl)methyl)phenyl)-1,2,5-thiadiazolidin-3-one 1,1-dioxide] |
